These compounds were tested against Sodium- and chloride-dependent GABA transporter 1 (Homo sapiens, UniProt P30531) (assay: Displacement of [3H]Tiagabine from human recombinant GAT1 expressed in HEK293 cells by equilibrium binding assay).
Chain of Sodium- and chloride-dependent GABA transporter 1 (P30531 whole entry): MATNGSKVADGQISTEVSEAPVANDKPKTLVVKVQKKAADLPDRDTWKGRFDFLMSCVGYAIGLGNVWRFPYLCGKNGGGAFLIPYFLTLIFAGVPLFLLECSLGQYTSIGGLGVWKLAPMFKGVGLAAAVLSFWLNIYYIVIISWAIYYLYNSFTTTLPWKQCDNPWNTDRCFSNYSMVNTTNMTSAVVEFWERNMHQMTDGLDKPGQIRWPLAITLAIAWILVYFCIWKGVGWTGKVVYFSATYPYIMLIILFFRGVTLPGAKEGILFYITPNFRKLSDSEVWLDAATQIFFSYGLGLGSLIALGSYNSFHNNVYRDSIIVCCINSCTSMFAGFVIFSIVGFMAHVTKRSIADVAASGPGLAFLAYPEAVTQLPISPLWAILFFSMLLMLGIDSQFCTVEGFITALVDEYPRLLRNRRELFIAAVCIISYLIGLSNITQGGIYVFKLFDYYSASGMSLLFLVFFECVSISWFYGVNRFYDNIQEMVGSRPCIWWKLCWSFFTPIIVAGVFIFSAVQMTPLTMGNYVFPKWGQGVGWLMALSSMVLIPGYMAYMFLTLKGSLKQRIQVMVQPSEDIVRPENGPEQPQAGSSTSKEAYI
Assay type: cell-based
`O=C(O)[C@@H]1CCCN(CC/C=C(\c2ccccc2)c2ccccc2C(F)(F)F)C1` gave a Ki of 1910 nM. In the case of `O=C(O)[C@@H]1CCCN(CC/C=C(/c2ccccc2F)c2ccccc2OC(F)(F)F)C1`, the Ki is reported as 52.5 nM. With `COc1ccccc1/C(=C/CCN1CCC[C@@H](C(=O)O)C1)c1ccccc1` the Ki was 372 nM. For `Cc1ccc(C(=CCCN2CC[C@H]3[C@@H](C2)[C@@H]3C(=O)O)c2ccc(C)s2)s1`, the Ki was > 10000 nM. `CCc1ccccc1/C(=C\CCN1CCC[C@@H](C(=O)O)C1)c1ccccc1F` showed a Ki of 38 nM. For `O=C(O)[C@@H]1CCCN(CC/C=C(\c2ccccc2)c2ccccc2F)C1`, the Ki was 372 nM. Compound `O=C(O)[C@@H]1CCCN(CC/C=C(\c2ccccc2)c2ccccc2-c2ccccc2)C1` has a Ki of 676 nM. Work on `COc1ccccc1/C(=C\CCN1CCC[C@@H](C(=O)O)C1)c1ccccc1` yielded a Ki of 56.2 nM. For `Cc1ccccc1/C(=C/CCN1CCC[C@@H](C(=O)O)C1)c1ccccc1F`, the Ki was 72.4 nM. In the case of `Cc1cc(F)ccc1/C(=C/CCN1CCC[C@@H](C(=O)O)C1)c1ccccc1`, the Ki is reported as 380 nM. In the case of `O=C(O)[C@@H]1CCCN(CC/C=C(\c2ccccc2)c2ccccc2Br)C1`, the Ki is reported as 200 nM. `O=C(O)[C@@H]1CCCN(CC/C=C(/c2ccccc2)c2ccccc2F)C1` gave a Ki of 69.2 nM. `O=C(O)[C@@H]1CCCN(CC/C=C(/c2ccccc2)c2ccccc2OC(F)(F)F)C1` was tested, and the Ki was 58.9 nM. `Cc1ccccc1/C(=C\CCN1CCC[C@@H](C(=O)O)C1)c1ccccc1C(F)(F)F` was tested, and the Ki was 380 nM. Work on `O=C(O)[C@@H]1CCCN(CC/C=C(\c2ccccc2F)c2ccccc2Cl)C1` yielded a Ki of 158 nM. `O=C(O)[C@@H]1CCCN(CC/C=C(/c2ccccc2)c2ccccc2C(F)(F)F)C1` gave a Ki of 93.3 nM. In the case of `O=C(O)[C@@H]1CCCN(CC/C=C(/c2ccccc2)c2ccccc2Br)C1`, the Ki is reported as 28.8 nM. `Cc1ccc(C(=CCCN2CCCC(F)(C(=O)O)C2)c2ccc(C)s2)s1` (configuration not stated) gave a Ki of 138 nM. In the case of `COc1ccccc1/C(=C\CCN1CCC[C@@H](C(=O)O)C1)c1ccccc1F`, the Ki is reported as 53.7 nM. `Cc1ccccc1/C(=C\CCN1CCC[C@@H](C(=O)O)C1)c1ccccc1F` showed a Ki of 14.8 nM. For `O=C(O)[C@@H]1CCCN(CCC=C(c2ccccc2F)c2ccccc2F)C1`, the Ki was 46.8 nM. For `Cc1ccc(C(=CCCN(C)[C@H]2CCC[C@@H]2C(=O)O)c2ccc(C)s2)s1`, the Ki was > 10000 nM. In the case of `O=C(O)[C@@H]1CCCN(CC/C=C(/c2ccccc2)c2c(F)cccc2F)C1`, the Ki is reported as 331 nM. For `CCc1ccccc1/C(=C\CCN1CCC[C@@H](C(=O)O)C1)c1ccccc1`, the Ki was 29.5 nM. Compound `Cc1cc(F)ccc1/C(=C\CCN1CCC[C@@H](C(=O)O)C1)c1ccccc1F` has a Ki of 19.1 nM. `Cc1cc(F)ccc1/C(=C\CCN1CCC[C@@H](C(=O)O)C1)c1ccccc1C(F)(F)F` gave a Ki of 38.9 nM. For `O=C(O)[C@@H]1CCCN(CC/C=C(/c2ccccc2F)c2ccccc2Cl)C1`, the Ki was 18.2 nM. `Cc1cc(F)ccc1/C(=C\CCN1CCC[C@@H](C(=O)O)C1)c1ccccc1` was tested, and the Ki was 33.9 nM. For `COc1ccccc1/C(=C/CCN1CCC[C@@H](C(=O)O)C1)c1ccccc1C`, the Ki was 70.8 nM. For `CCc1ccccc1/C(=C/CCN1CCC[C@@H](C(=O)O)C1)c1ccccc1F`, the Ki was 89.1 nM. `CC(=O)[C@@H]1CC[C@H]2CC[C@@H]1N2CCC=C(c1ccccc1)c1ccccc1` was tested, and the Ki was 2750 nM. `Cc1ccc(C(=CCCN2C[C@@H]3[C@H](C2)[C@@H]3C(=O)O)c2ccc(C)s2)s1` was tested, and the Ki was > 10000 nM. `O=C(O)[C@@H]1CCCN(CC/C=C(/c2ccccc2F)c2ccccc2Br)C1` gave a Ki of 21.9 nM. `O=C(O)[C@@H]1CCCN(CC/C=C(/c2ccccc2)c2ccccc2-c2ccccc2)C1` gave a Ki of 1070 nM. In the case of `Cc1ccc(C(=CCCN2CC[C@@H]3[C@H](C2)[C@@H]3C(=O)O)c2ccc(C)s2)s1`, the Ki is reported as > 10000 nM. With `Cc1ccc(C(=CCCN(C)[C@H]2CCCC[C@@H]2C(=O)O)c2ccc(C)s2)s1` the Ki was > 10000 nM. `Cc1ccc(C(=CCCN2CCOC(C(=O)O)C2)c2ccc(C)s2)s1` (configuration not stated) was tested, and the Ki was > 10000 nM. Work on `O=C(O)[C@@H]1CCCN(CC/C=C(\c2ccccc2)c2ccccc2Cl)C1` yielded a Ki of 166 nM. With `O=C(O)C1(F)CCCN(CCC=C(c2ccccc2)c2ccccc2)C1` (configuration not stated) the Ki was 832 nM. With `O=C(O)[C@@H]1CCCN(CC/C=C(/c2ccccc2)c2ccccc2Cl)C1` the Ki was 40.7 nM. `Cc1cccc(C)c1/C(=C\CCN1CCC[C@@H](C(=O)O)C1)c1ccccc1` showed a Ki of 77.6 nM. `O=C(O)[C@@H]1CCCN(CC/C=C(\c2ccccc2)c2c(F)cccc2F)C1` gave a Ki of 692 nM. In the case of `O=C(O)[C@@H]1CCCN(CC/C=C(\c2ccccc2F)c2ccccc2C(F)(F)F)C1`, the Ki is reported as 355 nM. For `Cc1ccc(C(=CCCN2C[C@@H]3[C@H](C2)[C@H]3C(=O)O)c2ccc(C)s2)s1`, the Ki was > 10000 nM. `Cc1ccccc1C(=CCCN1CCC[C@@H](C(=O)O)C1)c1ccccc1C` showed a Ki of 41.7 nM. Compound `Cc1ccccc1/C(=C\CCN1CCC[C@@H](C(=O)O)C1)c1ccccc1Cl` has a Ki of 61.7 nM. For `Cc1ccccc1/C(=C/CCN1CCC[C@@H](C(=O)O)C1)c1ccccc1`, the Ki was 93.3 nM. In the case of `O=C(O)[C@@H]1CCCN(CC/C=C(\c2ccccc2)c2ccccc2OC(F)(F)F)C1`, the Ki is reported as 646 nM. `CCc1ccccc1/C(=C/CCN1CCC[C@@H](C(=O)O)C1)c1ccccc1` gave a Ki of 102 nM. Work on `Cc1ccccc1/C(=C\CCN1CCC[C@@H](C(=O)O)C1)c1ccccc1` yielded a Ki of 20.4 nM.

What follows are compounds tested against T1, Sodium- and chloride-dependent betaine transporter (Homo sapiens, UniProt P48065) (assay: Inhibition of BGT1).
T1 sequence (P48065 whole entry): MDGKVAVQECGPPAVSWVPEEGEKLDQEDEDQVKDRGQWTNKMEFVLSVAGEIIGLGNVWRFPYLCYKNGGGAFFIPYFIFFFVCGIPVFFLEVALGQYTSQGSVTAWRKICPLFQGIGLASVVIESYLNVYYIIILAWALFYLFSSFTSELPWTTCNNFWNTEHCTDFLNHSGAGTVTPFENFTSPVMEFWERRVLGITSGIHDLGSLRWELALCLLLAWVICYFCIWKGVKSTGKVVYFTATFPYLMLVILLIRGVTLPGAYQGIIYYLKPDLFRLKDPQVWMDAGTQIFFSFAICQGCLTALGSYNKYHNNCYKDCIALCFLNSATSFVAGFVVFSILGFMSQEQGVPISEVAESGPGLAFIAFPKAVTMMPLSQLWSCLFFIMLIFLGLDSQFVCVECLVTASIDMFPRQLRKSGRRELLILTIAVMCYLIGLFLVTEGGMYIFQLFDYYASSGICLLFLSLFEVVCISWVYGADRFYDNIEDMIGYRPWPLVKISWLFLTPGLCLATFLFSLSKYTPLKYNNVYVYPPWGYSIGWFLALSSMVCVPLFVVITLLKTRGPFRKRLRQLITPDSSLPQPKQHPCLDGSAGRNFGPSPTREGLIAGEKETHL
With `Cc1ccccc1/C(=C\CCN1CCC[C@@H](C(=O)O)C1)c1ccccc1F` the IC50 was > 100 µM.

Each compound was assayed against Cytochrome P450 2C9 (Homo sapiens, UniProt P11712) (assay: Inhibition of CYP2C9).
Chain of Cytochrome P450 2C9 (P11712 whole entry): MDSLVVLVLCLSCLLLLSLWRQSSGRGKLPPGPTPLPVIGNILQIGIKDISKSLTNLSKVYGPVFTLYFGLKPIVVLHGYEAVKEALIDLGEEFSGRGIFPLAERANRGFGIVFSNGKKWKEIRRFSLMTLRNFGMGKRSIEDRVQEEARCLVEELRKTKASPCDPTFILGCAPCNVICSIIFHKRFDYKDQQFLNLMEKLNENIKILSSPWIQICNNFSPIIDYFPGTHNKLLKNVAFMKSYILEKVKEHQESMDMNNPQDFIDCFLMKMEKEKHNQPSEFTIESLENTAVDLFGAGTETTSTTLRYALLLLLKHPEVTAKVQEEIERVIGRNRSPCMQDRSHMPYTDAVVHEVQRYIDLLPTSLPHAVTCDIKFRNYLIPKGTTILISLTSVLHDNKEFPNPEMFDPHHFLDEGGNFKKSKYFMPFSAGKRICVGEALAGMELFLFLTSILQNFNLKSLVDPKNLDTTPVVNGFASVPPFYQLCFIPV
Assay type: ADME
With `Cc1ccccc1/C(=C\CCN1CCC[C@@H](C(=O)O)C1)c1ccccc1F` the IC50 was > 10 µM.

The compounds below were run against T2, Cytochrome P450 1A2 (Homo sapiens, UniProt P05177) (assay: Inhibition of CYP1A2).
T2 sequence (P05177 whole entry): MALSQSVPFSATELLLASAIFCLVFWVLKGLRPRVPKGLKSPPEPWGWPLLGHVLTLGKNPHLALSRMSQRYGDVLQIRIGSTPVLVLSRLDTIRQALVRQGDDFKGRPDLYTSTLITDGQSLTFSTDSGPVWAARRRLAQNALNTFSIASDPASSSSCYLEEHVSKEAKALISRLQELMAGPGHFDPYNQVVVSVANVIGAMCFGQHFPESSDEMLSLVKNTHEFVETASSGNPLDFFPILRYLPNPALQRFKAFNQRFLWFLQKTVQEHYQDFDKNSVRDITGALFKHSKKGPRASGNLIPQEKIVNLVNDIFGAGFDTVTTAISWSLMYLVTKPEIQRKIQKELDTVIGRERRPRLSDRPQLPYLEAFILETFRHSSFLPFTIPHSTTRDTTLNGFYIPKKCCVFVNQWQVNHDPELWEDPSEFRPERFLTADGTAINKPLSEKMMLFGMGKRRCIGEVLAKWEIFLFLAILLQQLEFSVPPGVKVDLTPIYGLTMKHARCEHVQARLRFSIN
Assay type: ADME
`Cc1ccccc1/C(=C\CCN1CCC[C@@H](C(=O)O)C1)c1ccccc1F` was tested, and the IC50 was > 10 µM.

Each compound was assayed against T3, Sodium- and chloride-dependent GABA transporter 2 (Homo sapiens, UniProt Q9NSD5) (assay: Inhibition of GAT2).
T3 sequence (Q9NSD5 whole entry): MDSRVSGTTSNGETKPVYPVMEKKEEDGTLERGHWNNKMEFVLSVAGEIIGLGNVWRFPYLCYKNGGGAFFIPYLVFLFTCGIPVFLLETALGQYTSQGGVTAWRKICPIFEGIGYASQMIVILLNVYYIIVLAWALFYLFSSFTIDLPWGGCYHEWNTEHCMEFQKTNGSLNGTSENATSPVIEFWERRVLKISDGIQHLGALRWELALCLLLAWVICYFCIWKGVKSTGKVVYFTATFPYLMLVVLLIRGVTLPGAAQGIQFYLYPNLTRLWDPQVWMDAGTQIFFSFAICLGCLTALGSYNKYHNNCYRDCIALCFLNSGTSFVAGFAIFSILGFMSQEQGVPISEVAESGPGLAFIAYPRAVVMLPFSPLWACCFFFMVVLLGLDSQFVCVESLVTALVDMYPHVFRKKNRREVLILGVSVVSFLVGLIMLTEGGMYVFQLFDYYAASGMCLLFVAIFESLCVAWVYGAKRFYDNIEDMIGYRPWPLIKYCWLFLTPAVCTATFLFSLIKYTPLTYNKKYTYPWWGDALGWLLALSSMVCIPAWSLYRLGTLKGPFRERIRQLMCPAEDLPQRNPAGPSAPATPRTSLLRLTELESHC
`Cc1ccccc1/C(=C\CCN1CCC[C@@H](C(=O)O)C1)c1ccccc1F` was tested, and the IC50 was > 100 µM.

The compounds below were run against T4, Sodium- and chloride-dependent GABA transporter 3 (Homo sapiens, UniProt P48066) (assay: Inhibition of GAT3).
T4 sequence (P48066 whole entry): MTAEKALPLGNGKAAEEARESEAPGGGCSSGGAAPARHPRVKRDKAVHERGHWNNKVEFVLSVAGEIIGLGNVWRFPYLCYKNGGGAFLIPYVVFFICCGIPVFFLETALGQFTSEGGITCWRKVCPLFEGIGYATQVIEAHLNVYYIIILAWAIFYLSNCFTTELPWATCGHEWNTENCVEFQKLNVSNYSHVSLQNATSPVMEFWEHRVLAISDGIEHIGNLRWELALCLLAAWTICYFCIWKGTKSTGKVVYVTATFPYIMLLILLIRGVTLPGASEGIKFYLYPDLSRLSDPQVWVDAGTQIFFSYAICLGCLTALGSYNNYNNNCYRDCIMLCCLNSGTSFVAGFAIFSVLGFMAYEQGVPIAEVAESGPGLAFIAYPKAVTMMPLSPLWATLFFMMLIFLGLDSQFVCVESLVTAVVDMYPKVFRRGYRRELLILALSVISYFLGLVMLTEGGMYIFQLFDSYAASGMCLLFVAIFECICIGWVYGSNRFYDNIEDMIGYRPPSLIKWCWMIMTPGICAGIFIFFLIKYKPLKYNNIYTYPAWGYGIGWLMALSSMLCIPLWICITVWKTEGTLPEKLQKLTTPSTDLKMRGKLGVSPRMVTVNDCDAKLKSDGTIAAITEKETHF
With `Cc1ccccc1/C(=C\CCN1CCC[C@@H](C(=O)O)C1)c1ccccc1F` the IC50 was > 100 µM.

These compounds were tested against Cytochrome P450 2C19 (Homo sapiens, UniProt P33261) (assay: Inhibition of CYP2C19).
Chain of Cytochrome P450 2C19 (P33261 whole entry): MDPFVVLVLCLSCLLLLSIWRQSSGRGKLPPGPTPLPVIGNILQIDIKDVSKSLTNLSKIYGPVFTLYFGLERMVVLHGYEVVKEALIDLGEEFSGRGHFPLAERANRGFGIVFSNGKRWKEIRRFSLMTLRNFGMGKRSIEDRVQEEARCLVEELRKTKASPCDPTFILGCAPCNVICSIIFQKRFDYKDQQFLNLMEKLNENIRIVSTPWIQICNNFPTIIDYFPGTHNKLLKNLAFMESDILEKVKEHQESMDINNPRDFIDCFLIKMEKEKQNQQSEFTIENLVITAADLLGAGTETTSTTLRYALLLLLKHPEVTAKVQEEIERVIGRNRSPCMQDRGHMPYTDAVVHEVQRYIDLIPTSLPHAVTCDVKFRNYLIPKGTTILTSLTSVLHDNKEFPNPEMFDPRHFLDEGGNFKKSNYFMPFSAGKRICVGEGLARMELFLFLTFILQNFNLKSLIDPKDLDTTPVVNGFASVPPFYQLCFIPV
Assay type: ADME
`Cc1ccccc1/C(=C\CCN1CCC[C@@H](C(=O)O)C1)c1ccccc1F` was tested, and the IC50 was > 10 µM.

The compounds below were run against Cytochrome P450 3A4 (Homo sapiens, UniProt P08684) (assay: Inhibition of CYP3A4).
Chain of Cytochrome P450 3A4 (P08684 whole entry): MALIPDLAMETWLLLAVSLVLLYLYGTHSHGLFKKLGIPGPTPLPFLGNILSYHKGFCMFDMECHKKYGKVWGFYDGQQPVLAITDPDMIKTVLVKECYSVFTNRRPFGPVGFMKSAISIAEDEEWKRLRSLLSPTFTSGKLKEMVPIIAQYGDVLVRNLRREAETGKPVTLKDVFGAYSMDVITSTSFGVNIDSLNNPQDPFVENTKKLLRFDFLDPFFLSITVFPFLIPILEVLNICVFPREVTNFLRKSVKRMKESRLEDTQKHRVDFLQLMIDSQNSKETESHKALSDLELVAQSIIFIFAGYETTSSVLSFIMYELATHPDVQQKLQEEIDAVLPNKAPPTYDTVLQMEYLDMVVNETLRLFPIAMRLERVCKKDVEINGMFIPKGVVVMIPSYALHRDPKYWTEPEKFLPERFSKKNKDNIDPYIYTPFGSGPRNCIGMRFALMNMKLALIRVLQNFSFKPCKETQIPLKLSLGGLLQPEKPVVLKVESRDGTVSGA
Assay type: ADME
With `Cc1ccccc1/C(=C\CCN1CCC[C@@H](C(=O)O)C1)c1ccccc1F` the IC50 was > 10 µM.
